Source: patent US12721934B2, “Cationic nanodrug, preparation method therefor, and drug-loaded implantable medical device” (SHANGHAI MICROPORT MEDICAL (GROUP) CO., LTD., priority 2019, dated 2026)

System: Vascular smooth muscle cells (SMCs)
Experiment: Cytotoxicity of the cationic substances (MTT)
Assay type: cell-based
Protocol: Vascular smooth muscle cells (SMCs) were collected and the cell concentration was determined using a hemocytometer. The cell concentration was adjusted to […] using a liquid cell culture medium. The cell suspension was dispensed on a 96-well plate ([…] cells in each well) and the wells were divided into groups (a control group and four test groups), four wells for each group. After the cells were cultivated for 24 hours under regular cell culture conditions, the culture medium was pipetted away. Each of the fresh culture media and culture media respectively containing the suspensions of non-drug loaded nanoparticles prepared in Example 14, Comparative Example 2 and Comparative Example 3 was added (the cationic substance in each of the three examples has a same concentration). After the cells were further cultivated for 24 hours, 50 μL of an MTT agent was dispensed into each well, and the cells were then incubated for 4 hours in a CO2 incubator. After that, the culture media were carefully pipetted away, and 150 μL of dimethyl sulfoxide was added to each well. The plate was then shaken gently to facilitate dissolution of formazan. Absorbance of each well at 490 nm was measured using a microplate reader, and cell survival rates were calculated according to: […]

| SMILES | Cytotoxicity (in words) |
| --- | --- |
| CCCCCCCCCCCC[N+](C)(C)CCCCCCCCCCCC.[Br-] [DMAB, didodecyldimethylammonium bromide] | serious cytotoxicity |
| CCCCCCCC/C=C\CCCCCCCC(=O)OCC(C[N+](C)(C)C)OC(=O)CCCCCCC/C=C\CCCCCCCC.[Cl-] (centres unmarked) [DOTAP, 1,2-dioleoyl-3-trimethylammonium-propane chloride] | does not show noticeable cytotoxicity |
